Measurements: patent US8461328B2, “Tricyclic heterocyclic compounds, compositions and methods of use thereof” (Genentech, Inc., priority 2010, dated 2013)

Legend:
Type in all cases: biochemical
TYK2 = biological target: T1, TYK2 (Homo sapiens, UniProt P29597); test: TYK2 inhibition (Table 4)
T1 construct: made in house; host or cells: SF9 insect cells (baculovirus)
T1 sequence (P29597 873-1187): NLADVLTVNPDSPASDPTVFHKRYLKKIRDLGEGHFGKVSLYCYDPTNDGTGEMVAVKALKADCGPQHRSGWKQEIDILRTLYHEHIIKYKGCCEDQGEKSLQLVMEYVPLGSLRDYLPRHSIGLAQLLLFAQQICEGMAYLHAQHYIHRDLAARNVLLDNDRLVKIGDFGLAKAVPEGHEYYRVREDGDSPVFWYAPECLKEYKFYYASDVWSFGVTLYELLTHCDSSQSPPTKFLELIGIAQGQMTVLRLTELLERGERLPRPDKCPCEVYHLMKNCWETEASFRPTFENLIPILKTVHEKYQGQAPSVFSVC

JAK3 = biological target: T2, JAK3 (Homo sapiens, UniProt P52333); test: JAK3 inhibition (Table 4); conditions: read-out: JAK3 Ki
T2 construct: made in house; host or cells: SF9 insect cells (baculovirus)
T2 sequence (P52333 783-1124): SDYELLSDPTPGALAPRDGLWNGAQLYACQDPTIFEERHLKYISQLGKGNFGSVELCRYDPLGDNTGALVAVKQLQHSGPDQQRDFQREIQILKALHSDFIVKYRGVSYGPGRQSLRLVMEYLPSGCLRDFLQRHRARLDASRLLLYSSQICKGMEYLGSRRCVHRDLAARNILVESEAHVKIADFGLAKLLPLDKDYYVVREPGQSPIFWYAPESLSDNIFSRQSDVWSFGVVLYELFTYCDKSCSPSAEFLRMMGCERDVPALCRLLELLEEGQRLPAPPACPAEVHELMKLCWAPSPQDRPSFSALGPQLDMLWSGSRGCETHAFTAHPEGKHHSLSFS

JAK1 = biological target: T3, JAK1 (Homo sapiens, UniProt P23458); test: JAK1 inhibition (Table 4); conditions: read-out: JAK1 Ki
T3 construct: made in house; host or cells: SF9 insect cells (baculovirus)
T3 sequence (P23458 852-1154): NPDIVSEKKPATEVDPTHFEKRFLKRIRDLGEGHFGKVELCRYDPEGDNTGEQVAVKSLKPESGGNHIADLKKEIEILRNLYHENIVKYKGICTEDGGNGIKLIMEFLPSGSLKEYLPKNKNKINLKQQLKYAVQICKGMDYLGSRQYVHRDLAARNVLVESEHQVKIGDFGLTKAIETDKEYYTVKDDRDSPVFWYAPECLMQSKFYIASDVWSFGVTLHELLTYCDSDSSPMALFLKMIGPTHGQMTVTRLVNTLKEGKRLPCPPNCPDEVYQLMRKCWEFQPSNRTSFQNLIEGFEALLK

JAK2 = biological target: T4, JAK2 (Homo sapiens, UniProt O60674); test: JAK2 inhibition (Table 4); conditions: read-out: JAK2 Ki
T4 construct: made in house; host or cells: SF9 insect cells (baculovirus)
T4 sequence (O60674 812-1132): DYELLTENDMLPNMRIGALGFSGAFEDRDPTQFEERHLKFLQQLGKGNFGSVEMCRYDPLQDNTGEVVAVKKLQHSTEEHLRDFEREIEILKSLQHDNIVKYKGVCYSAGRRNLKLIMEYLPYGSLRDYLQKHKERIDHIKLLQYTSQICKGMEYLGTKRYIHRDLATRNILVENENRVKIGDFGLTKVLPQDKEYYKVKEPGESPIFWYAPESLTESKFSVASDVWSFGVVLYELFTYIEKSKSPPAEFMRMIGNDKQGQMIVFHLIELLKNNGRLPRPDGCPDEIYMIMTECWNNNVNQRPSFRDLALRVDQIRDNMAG

| Ki (TYK2) [nM] | Ki (JAK3) [nM] | Ki (JAK1) [nM] | Ki (JAK2) [nM] | Compound |
| --- | --- | --- | --- | --- |
| 40.9 | 14 | 12.8 | 17.7 | Cc1nc2cnc3[nH]ccc3c2n1[C@H]1CCC[C@@](C)(O)C1 [Example 888, (1R,3S)-1-Methyl-3-(2-methyl-6H-1,3,5,6-tetraaza-as-indacen-1-yl)-cyclohexanol] |
| 57.1 | 128 | 14.7 | 96.4 | CC(O)c1nc2cnc3[nH]ccc3c2n1C1CC2CCC1O2 (single isomer, unassigned) [Example 905, (o)-1-[1-(7-Oxa-bicyclo[2.2.1]hept-2-yl)-1,6-dihydro-1,3,5,6-tetraaza-as-indacen-2-yl]-ethanol] |
| 1230 | 310 | 141 | 378 | Cc1nc2cnc3[nH]ccc3c2n1[C@@H](C)CO [Example 422, (S)-2-(2-Methyl-6H-1,3,5,6-tetraaza-as-indacen-1-yl)-propan-1-ol] |
| 261 | 412 | 38.2 | 128 | FC1CNCCC1n1cnc2cnc3[nH]ccc3c21 (racemic) [Example 520, 1-(3-Fluoro-piperidin-4-yl)-1,6-dihydro-1,3,5,6-tetraaza-as-indacene] |
| 83.1 | 143 | 10.3 | 20.8 | FC(F)(F)CNC1CCC(n2nnc3cnc4[nH]ccc4c32)C1 (racemic) [Example 718, [3-(6H-1,2,3,5,6-Pentaaza-as-indacen-1-yl)-cyclopentyl]-(2,2,2-trifluoro-ethyl)-amine] |
| 2220 | 754 | 176 | 785 | COCCNC1CCC(n2cnc3cnc4[nH]ccc4c32)C1 (racemic) [Example 726, (2-Methoxy-ethyl)-[3-(6H-1,3,5,6-tetraaza-as-indacen-1-yl)-cyclopentyl]-amine] |
| 1150 | 3520 | 37.1 | 175 | N#Cc1ccc(CC(=O)N2CC[C@@H](n3cnc4cnc5[nH]ccc5c43)C2)cc1 [Example 431, 4-{2-Oxo-2-[(R)-3-(6H-1,3,5,6-tetraaza-as-indacen-1-yl)-pyrrolidin-1-yl]-ethyl}-benzonitrile] |
| 64.6 | 283 | 8.6 | 13.3 | O=C(Cc1ccccc1)N1CCC(n2cnc3cnc4[nH]ccc4c32)CC1 [Example 7, 2-Phenyl-1-[4-(6H-1,2,3,5,6-tetraaza-as-indacen-1-yl)-piperidin-1-yl]-ethanone] |
| 1270 | 717 | 87.8 | 566 | CC(=O)NCCc1nc2cnc3[nH]ccc3c2n1[C@@H]1CCCOC1 [Example 865, (R)—N-{2-[1-(Tetrahydro-pyran-3-yl)-1,6-dihydro-1,3,5,6-tetraaza-as-indacen-2-yl]-ethyl}-acetamide] |
| 1790 | 2660 | 137 | 1460 | C[C@@H](O)c1nc2cnc3[nH]ccc3c2n1[C@@H]1CCCN(C(=O)C2CCOCC2)C1 [Example 783, {(R)-3-[2-((R)-1-Hydroxy-ethyl)-6H-1,3,5,6-tetraaza-as-indacen-1-yl]-piperidin-1-yl}-(tetrahydro-pyran-4-yl)-methanone] |
| 64.7 | 16.2 | 2.85 | 8.59 | O=C(CCC(F)(F)F)NC1CCC(n2cnc3cnc4[nH]ccc4c32)C1 (racemic) [Example 732, 4,4,4-Trifluoro-N-[3-(6H-1,3,5,6-tetraaza-as-indacen-1-yl)-cyclopentyl]-butyramide] |
| 16.2 | 19.5 | 3.3 | 4.75 | O=C(CC(F)(F)F)N1CCC[C@@H](n2cnc3cnc4[nH]ccc4c32)C1 [Example 296] |
| 586 | 10.8 | 4.29 | 16.4 | O=C(Cc1nc2cnc3[nH]ccc3c2n1C1CCN(Cc2ccccc2)CC1)NC1CCCC1 [Example 99, 2-[1-(1-Benzyl-piperidin-4-yl)-1,6-dihydro-1,3,5,6-tetraaza-as-indacen-2-yl]-N-cyclopentyl-acetamide] |
| 61.5 | 128 | 7.66 | 126 | OCc1nc2cnc3[nH]ccc3c2n1C1CCNCC1 [Example 236, (1-Piperidin-4-yl-1,6-dihydro-1,3,5,6-tetraaza-as-indacen-2-yl)-methanol] |
| 10.1 | 8.69 | 0.89 | 17.9 | O=C(Cc1nc2cnc3[nH]ccc3c2n1C1CC2CCC1C2)N1CCC(O)CC1 (racemic) [Example 869, 2-(1-Bicyclo[2.2.1]hept-2-yl-1,6-dihydro-1,3,5,6-tetraaza-as-indacen-2-yl)-1-(4-hydroxy-piperidin-1-yl)-ethanone] |
| 30.5 | 94.1 | 5.09 | 200 | O=C(O)C1CC1C(O)c1nc2cnc3[nH]ccc3c2n1C1CCCCC1 (racemic) [Example 942, 2-[(1-Cyclohexyl-1,6-dihydro-1,3,5,6-tetraaza-as-indacen-2-yl)-hydroxy-methyl]-cyclopropanecarboxylic acid] |
| 7.81 | 6.77 | 0.81 | 1.77 | CC1CN(CCC#N)CCC1n1cnc2cnc3[nH]ccc3c21 (racemic) [Example 323, 3-[3-Methyl-4-(6H-1,3,5,6-tetraaza-as-indacen-1-yl)-piperidin-1-yl]-propionitrile] |
| 473 | 55.3 | 17.7 | 125 | Cc1cc(CN2CCC(n3c([C@@H](C)O)nc4cnc5[nH]ccc5c43)CC2)n(C)n1 [Example 821, (R)-1-{1-[1-(2,5-Dimethyl-2H-pyrazol-3-ylmethyl)-piperidin-4-yl]-1,6-dihydro-1,3,5,6-tetraaza-as-indacen-2-yl}-ethanol] |
| 758 | 1270 | 219 | 680 | OCCc1nc2cnc3[nH]ccc3c2n1[C@@H]1CCCNC1 [Example 16, 2-((R)-1-Piperidin-3-yl-1,6-dihydro-1,2,3,5,6-tetraaza-as-indacen-2-yl)ethanol] |
| 211 | 93.1 | 7.15 | 33.7 | CC1(n2cnc3cnc4[nH]ccc4c32)CCN(Cc2cncs2)CC1 [Example 755, 1-(4-Methyl-1-thiazol-5-ylmethyl-piperidin-4-yl)-1,6-dihydro-1,3,5,6-tetraaza-as-indacene] |
| 156 | 12.1 | 1.43 | 9.65 | CS(=O)(=O)NCc1nc2cnc3[nH]ccc3c2n1C1CCN(Cc2ccccc2)CC1(F)F (racemic) [Example 946, N-[1-(1-Benzyl-3,3-difluoro-piperidin-4-yl)-1,6-dihydro-1,3,5,6-tetraaza-as-indacen-2-ylmethyl]-methanesulfonamide] |
| 33.9 | 76.4 | 6.79 | 6.07 | O=C(N[C@H]1CC[C@H](n2cnc3cnc4[nH]ccc4c32)CC1)c1ccccc1 [Example 218, N-[4-(6H-1,3,5,6-Tetraaza-as-indacen-1-yl)-cyclohexyl]-benzamide] |
| 11.1 | 36.6 | 9.51 | 66.2 | 3-[6-benzenesulfonyl-2-((R)-1-hydroxy-ethyl]-6H-1,3,5,6-tetraaza-as-indecen-1-yl}-cyclohexanecarbonitrile [Example 742] |
| 2330 | 32.6 | 20.6 | 23.8 | CNC(=O)c1nc2cnc3[nH]ccc3c2n1C1CCN(Cc2ccccc2)CC1 [Example 159, 1-(1-Benzyl-piperidin-4-yl)-1,6-dihydro-1,2,3,5,6-tetraaza-as-indacene-2-carboxylic acid methylamide] |
| 91.9 | 35.8 | 7.53 | 27.1 | CC(CC#N)N1CCC(n2c(C3CCOC3)nc3cnc4[nH]ccc4c32)CC1 (racemic) [Example 391, 3-{4-[2-(Tetrahydro-furan-3-yl)-6H-1,3,5,6-tetraaza-as-indacen-1-yl]-piperidin-1-yl}-butyronitrile] |
| 1050 | 83.4 | 62.3 | 281 | CCC(C)Cc1nc2cnc3[nH]ccc3c2n1C1CCN(CCC#N)CC1 (racemic) [Example 122, 3-{4-[2-(2-Methyl-butyl)-6H-1,2,3,5,6-tetraaza-as-indacen-1-yl]-piperidin-1-yl}-propionitrile] |
| 82.3 | 150 | 14.4 | 46.6 | c1cc2c(ncc3ncn(C4CCOCC4)c32)[nH]1 [Example 468, 1-(Tetrahydro-pyran-4-yl)-1,6-dihydro-1,3,5,6-tetraaza-as-indacene] |
| 48.8 | 25.4 | 3.48 | 7.04 | CCN1CC[C@@H](n2c(C)nc3cnc4[nH]ccc4c32)[C@@H](F)C1 [Example 521, 1-((3S,4R)-1-Ethyl-3-fluoro-piperidin-4-yl)-2-methyl-1,6-dihydro-1,3,5,6-tetraaza-as-indacene] |

| Compound | Ki (TYK2) [nM] | Ki (JAK3) [nM] | Ki (JAK1) [nM] | Ki (JAK2) [nM] |
| --- | --- | --- | --- | --- |
| CC(=O)NCc1nc2cnc3[nH]ccc3c2n1C1CCNCC1 [Example 207, N-(1-Piperidin-4-yl-1,6-dihydro-1,2,3,5,6-tetraaza-as-indacen-2-ylmethyl)-acetamide] | 1210 | 3010 | 78.1 | 1870 |
